Test results as given in patent US12479905B2, “Peptide used for immunotherapeutics” (3H BIO. CO., LTD., priority 2020, dated 2025).
Non-standard residues stand in square brackets, D forms with d. No end group written: not given here. Cha = N[C@@H](CC1CCCCC1)C(=O)O; Ahx = NCCCCCC(=O)O

Columns and labels:
[1] = Weight measurement of high-fat-diet mice after in vivo administration of peptide composition (Experimental Example 7); conditions: C57BL/6J male, high-fat diet after 10 weeks; intramuscular administration at 8, 10, 12 and 14 weeks of age; 50 μg peptide/100 μL with PHAD and Alhydrogel
Excerpt: In order to test the effect of the composition for in vivo administration prepared in Experimental Example 1.5, C57BL/6, Balbc and/or ICR species were used as experimental mice (purchased from Central Lab Animal Inc.). Although there were some differences in species, the mice purchased were 7-week-old on average and they were acclimatized for one week, and were used for experiments when they were 8 weeks of age. Experimental mice were reared under the conditions of a constant temperature and humidity environment within the temperature range of 23±1° C., relative humidity of 50±5%, and an environment controlled as 12-hour light room/12 hour dark room. Drinking water and food were provided ad libitum. In the case of a normal diet (purchased from Central Lab Animal Inc.), it consisted of 20% protein, 70% carbohydrate, and 10% fat based on total calories, whereas in the case of an obesity-inducing diet (purchased from Research diets), it consisted of a high-fat diet including 20% protein, 20% carbohydrate, and 60% fat based on total calories. Experimental mice were divided into each group to have different dietary conditions and composition administration conditions, and experiments were performed with the number of individuals that could be statistically processed for each experimental group. Detailed conditions are as disclosed in each specific experimental example.
For a test subject prepared in Experimental Example 1.6, different compositions were administered for each experimental group. All administration compositions were administered by an intramuscular injection method, and after disinfecting muscles of both thighs of each mouse with an alcohol swab, 50 μL each with a total amount of 100 μL was injected.
From the time of arrival to the end of the experiment for each experimental group of mice, the average was calculated after measuring three times per week to obtain the average weight value for each week. After completion of the experiment, each mouse was anesthetized, organs were dissected, and weights were measured, and the average was obtained for each experimental group.
According to Experimental Example 1.7, the composition for in vivo administration was administered to the test subject. In particular, the administration cycle was as follows: 8 weeks, 10 weeks, 12 weeks, and 14 weeks of age.
(1) According to Experimental Example 1.8, the weight of a test subject for each experimental group was measured.

[2] = test system: RNVPPIFNDVYWIAF (SEQ ID NO: 6); assay: Confirmation of antibody titer in serum by ELISA using the target antigen (Experimental Example 7); type: in vivo, C57BL/6J, male mice; conditions: serum at 11, 16 and 19 weeks of age; ELISA antigen SEQ ID NO: 6 only; administration at 8, 10, 12 and 14 weeks
Excerpt: In order to determine whether the composition for in vivo administration administered in Experimental Example 1.7 induced an antibody against the B-cell epitope, a method for confirming the antibody titer using the target antigen is as follows. In particular, the target antigen is RNVPPIFNDVYWIAF (SEQ ID NO: 6) or ApoB100. The time to confirm the antibody titer may vary as needed, and the time was specifically described for each experimental example.
1-1) For each injection of a composition for in vivo administration into a test subject, collect about 200 μL of blood from the subject's tail vein one week after the injection.
1-2) After placing the collected blood at 4° C. for one hour, perform centrifugation of the blood sample at 14,000 rpm for 10 minutes to separate the serum, which is the supernatant.
1-3) Dilute the target antigen to a concentration of 50 μg/100 μL in coating buffer (0.05 M, bicarbonate, pH 9.6) and add the antigen to a 96-well plate in an amount of 50 μg per well, and allow them to react overnight at 4° C. so that the peptide is coated on the wall of the well.
1-4) Wash the target antigen-coated plate three times using 300 μL of phosphate buffered saline (PBS)-T (0.05% with Tween-20) per well.
2-1) Add 300 μL of a 0.5% casein blocking solution per well in the plate, and allow to react overnight at 4° C.
2-2) Wash the plate three times with 300 μL of PBS-T per well.
3-1) As the primary antibody reaction, dilute the separated serum to an appropriate concentration, add it in an amount of 100 μL per well, and allow to react at 37° C. for one hour. In particular, after the initial injection, subject the serum to serial dilution by diluting the same to 1/20 to 1/1,000 in the experiment, and 1/500 to 1/10,000 depending on the subject during the experiment after the second to third injections. As a positive control, use a monoclonal antibody against the peptide of SEQ ID NO: 41 after purification.
3-2) After the reaction of 3-1, wash the plate three times with 300 μL of PBS-T per well.
4-1) As a secondary antibody reaction, add 100 μL of horseradish peroxidase (HRP) conjugated to anti-mouse IgG antibody recognizing a mouse antibody per well, and allow them to react at 37° C. for one hour.
4-2) After the reaction of 4-1), wash the plate three times with 300 μL of PBS-T per well.
5-1) Add 100 μL of a o-phenylenediamine dihydrochloride (OPD) solution per well, and allow to react at 37° C. for 10 minutes, and measure the absorbance at OD 450 nm (Synergy HT microplate reader, BioTek).
Obtain the antibody titer in serum by converting the extinction coefficient, which is measured based on 1 mg/mL concentration of the monoclonal antibody against the target antibody as a positive control.
(2) According to Experimental Example 1.9, the antibody titers observed in a test subject for each experimental group at 11 weeks, 16 weeks, and 19 weeks were confirmed. In particular, the target antigen was determined using RNVPPIFNDVYWIAF (SEQ ID NO: 6).

Substance	weight loss effect compared to the control group (Obese) [1]	antibody titer to RNVPPIFNDVYWIAF (SEQ ID NO: 6) [2]
GSHHHHHHGSDDDDKZaK(Cha)VAAWTLKAAaZRNVPPIFNDVYWIAF (GSHHHHHHGSDDDDK[Ahx][dA]K[Cha]VAAWTLKAA[dA][Ahx]RNVPPIFNDVYWIAF) [P3]	weight loss effect appeared	observed
KTTKQSFDLSVKAQYKKNKHZaK(Cha)VAAWTLKAAaZCRFRGLISLSQVYLS (KTTKQSFDLSVKAQYKKNKH[Ahx][dA]K[Cha]VAAWTLKAA[dA][Ahx]CRFRGLISLSQVYLS) [P4]	there was a weight loss effect	
RNVPPIFNDVYWIAFCRFRGLISLSQVYLSZaK(Cha)VAAWTLKAAaZ (RNVPPIFNDVYWIAFCRFRGLISLSQVYLS[Ahx][dA]K[Cha]VAAWTLKAA[dA][Ahx]) [P5]	a weight loss effect is observed	
RNVPPIFNDVYWIAFK(Cha)VAAWTLKAA (RNVPPIFNDVYWIAFK[Cha]VAAWTLKAA) [P8]	weight loss effect was shown	shown
RNVPPIFNDVYWIAFK(Cha)VAAWTLKAAHHHHHH (RNVPPIFNDVYWIAFK[Cha]VAAWTLKAAHHHHHH) [P9]	weight loss effect appeared	observed
RNVPPIFNDVYWIAFZaK(Cha)VAAWTLKAAaZ (RNVPPIFNDVYWIAF[Ahx][dA]K[Cha]VAAWTLKAA[dA][Ahx]) [P7]	weight loss effect appeared	observed
RNVPPIFNDVYWIAFZaK(Cha)VAAWTLKAAaZCRFRGLISLSQVYLS (RNVPPIFNDVYWIAF[Ahx][dA]K[Cha]VAAWTLKAA[dA][Ahx]CRFRGLISLSQVYLS) [P1]	weight loss effect	there were individuals showing a large antibody titer depending on the individual, and there were also individuals which showed no antibody titer
RNVPPIFNDVYWIAFZaK(Cha)VAAWTLKAAaZGSHHHHHHGSDDDDK (RNVPPIFNDVYWIAF[Ahx][dA]K[Cha]VAAWTLKAA[dA][Ahx]GSHHHHHHGSDDDDK) [P2]	weight loss effect appeared	observed
